Measurements taken from ChEMBL document CHEMBL1201862, “PubChem BioAssay data set” (2004).
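In this assay, cells in 96-well plates receive the compound at five concentrations for 48 hours. Endpoints are linearly interpolated between the surrounding concentrations. Abbreviation: GI50, concentration required for 50% inhibition of growth.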 Calls of active or inactive are those of the source. Cut-off read from the data, not from the text of the source: active = GI50 up to about 1.1 µM and inactive = higher. Where a SMILES comes first, the peptide text is derived from it. The star is where a group is joined. Boc = CC(C)(C)OC(=O)*; OBn = c1ccc(CO*)cc1

Key:
Assay in all cases: DTP human tumour cell line panel, 48 h
RPMI-8226 = tested on: RPMI-8226
SNB-19 = tested on: SNB-19
A549 = tested on: A549
OVCAR-3 = tested on: OVCAR-3
KM-20L2 = tested on: KM-20L2
IGROV-1 = tested on: IGROV-1
HOP-62 = tested on: HOP-62
KM12 = tested on: KM12
U-251 = tested on: U-251
SF-268 = tested on: SF-268
CAKI-1 = tested on: CAKI-1
EKVX = tested on: EKVX
NCI-H23 = tested on: NCI-H23
OVCAR-5 = tested on: OVCAR-5
HL-60 = tested on: HL-60
MDA-MB-435 = tested on: MDA-MB-435
BT-549 = tested on: BT-549
RXF 393 = tested on: RXF 393
NCI/ADR-RES = tested on: NCI/ADR-RES
T47D = tested on: T47D

Row | SMILES | GI50 (RPMI-8226) | GI50 (SNB-19) | GI50 (A549) | GI50 (OVCAR-3) | GI50 (KM-20L2) | GI50 (IGROV-1) | GI50 (HOP-62) | GI50 (KM12) | GI50 (U-251) | GI50 (SF-268) | GI50 (CAKI-1) | GI50 (EKVX) | GI50 (NCI-H23) | GI50 (OVCAR-5) | GI50 (HL-60) | GI50 (MDA-MB-435) | GI50 (BT-549) | GI50 (RXF 393) | GI50 (NCI/ADR-RES) | GI50 (T47D)
1 | CCOC(=O)C(=O)CC1=Nc2ccccc2SC(c2cccc(C)c2)C1 (centres undefined) | 23.7 µM (inactive) | 18.3 µM (inactive) | 21.2 µM (inactive) | 19.5 µM (inactive) | 17.9 µM (inactive) | 18.4 µM (inactive) | 23.9 µM (inactive) | 16.2 µM (inactive) | 17.1 µM (inactive) | 16.8 µM (inactive) | 21.9 µM (inactive) | 21.5 µM (inactive) | 17.1 µM (inactive) | 16.8 µM (inactive) | – | – | – | – | – | –
2 | Cc1ccc(S(=O)(=O)c2c(N)c3nc4ccccc4n3c3nc4ccccc4nc23)cc1 | > 100 µM (inactive) | > 100 µM (inactive) | > 100 µM (inactive) | > 100 µM (inactive) | > 100 µM (inactive) | > 100 µM (inactive) | 7.59 µM (inactive) | > 100 µM (inactive) | 6.75 µM (inactive) | > 100 µM (inactive) | > 100 µM (inactive) | > 100 µM (inactive) | > 100 µM (inactive) | > 100 µM (inactive) | – | – | – | – | – | –
3 | COc1cc2c(cc1OC)C(C#N)N(C(=O)c1ccccc1)C=C2OC(=O)c1ccccc1 (centres undefined) | 39.2 µM (inactive) | 23.6 µM (inactive) | – | 21.3 µM (inactive) | 52.4 µM (inactive) | 24.8 µM (inactive) | 17.6 µM (inactive) | 34.4 µM (inactive) | 24.7 µM (inactive) | 30.8 µM (inactive) | – | 28.7 µM (inactive) | 44.9 µM (inactive) | > 100 µM (inactive) | > 100 µM (inactive) | – | – | – | – | –
4 | COc1cc2c(cc1OC)C(=O)N(c1ccc(OCCN3CCCC3)cc1)C2 | > 100 µM (inactive) | > 100 µM (inactive) | > 100 µM (inactive) | > 100 µM (inactive) | – | > 100 µM (inactive) | > 100 µM (inactive) | > 100 µM (inactive) | > 100 µM (inactive) | > 100 µM (inactive) | > 100 µM (inactive) | > 100 µM (inactive) | > 100 µM (inactive) | > 100 µM (inactive) | > 100 µM (inactive) | > 100 µM (inactive) | > 100 µM (inactive) | > 100 µM (inactive) | > 100 µM (inactive) | > 100 µM (inactive)
5 | COC(=O)c1ccccc1/C=C1\Cc2c(C)c3c(c(C)c2C1=O)CCC3 | > 100 µM (inactive) | > 100 µM (inactive) | > 100 µM (inactive) | > 100 µM (inactive) | – | > 100 µM (inactive) | > 100 µM (inactive) | > 100 µM (inactive) | 37.8 µM (inactive) | 64.1 µM (inactive) | > 100 µM (inactive) | > 100 µM (inactive) | > 100 µM (inactive) | > 100 µM (inactive) | > 100 µM (inactive) | > 100 µM (inactive) | > 100 µM (inactive) | > 100 µM (inactive) | > 100 µM (inactive) | > 100 µM (inactive)
6 | NC1=Nc2ccccc2Sc2cccc(F)c21 | 36 µM (inactive) | > 100 µM (inactive) | 57.5 µM (inactive) | 44 µM (inactive) | – | > 100 µM (inactive) | > 100 µM (inactive) | 97.7 µM (inactive) | 85.9 µM (inactive) | > 100 µM (inactive) | > 100 µM (inactive) | 50.9 µM (inactive) | 48.6 µM (inactive) | > 100 µM (inactive) | 24 µM (inactive) | 74 µM (inactive) | 95.3 µM (inactive) | 24.9 µM (inactive) | 43.7 µM (inactive) | 62.2 µM (inactive)
7 | Cn1cc(NC(=O)c2cc(NC(=O)Nc3cc(C(=O)Nc4cc(C(=O)NCCC(=N)N)n(C)c4)n(C)c3)cn2C)cc1C(=O)NCCC(=N)N | – | > 100 µM (inactive) | 29.4 µM (inactive) | 41.1 µM (inactive) | 60.5 µM (inactive) | 24.5 µM (inactive) | 39.8 µM (inactive) | 17 µM (inactive) | 26.6 µM (inactive) | 36.4 µM (inactive) | 30.5 µM (inactive) | 52.2 µM (inactive) | 37.4 µM (inactive) | > 100 µM (inactive) | 60.7 µM (inactive) | – | – | 22.4 µM (inactive) | – | –
8 | COc1ccc2c(c1)O[C@@H]1C(O)Oc3cc(OC)c(OC)cc3[C@]1(O)C2=O (some centres undefined) | 44.8 µM (inactive) | > 100 µM (inactive) | 9.1 µM (inactive) | > 100 µM (inactive) | – | > 100 µM (inactive) | > 100 µM (inactive) | 79.3 µM (inactive) | 59 µM (inactive) | 34.3 µM (inactive) | > 100 µM (inactive) | 45.9 µM (inactive) | 3.44 µM (inactive) | > 100 µM (inactive) | 32.1 µM (inactive) | 50.8 µM (inactive) | 12.6 µM (inactive) | > 100 µM (inactive) | 30.4 µM (inactive) | 31.2 µM (inactive)
9 | CC(=O)Nc1ccc(C2SCc3nc4ccccc4n32)cc1 (centres undefined) | 47.6 µM (inactive) | > 100 µM (inactive) | > 100 µM (inactive) | > 100 µM (inactive) | – | > 91 µM (inactive) | > 100 µM (inactive) | > 100 µM (inactive) | 73.3 µM (inactive) | 55.2 µM (inactive) | 39.2 µM (inactive) | 87.9 µM (inactive) | 34.6 µM (inactive) | > 100 µM (inactive) | 82 µM (inactive) | > 100 µM (inactive) | > 35.7 µM (inactive) | > 100 µM (inactive) | 33.5 µM (inactive) | 48.9 µM (inactive)
10 | COC(=O)C1=C(C(=O)OC)C2(C)CCC(=O)C1O2 (centres undefined) | > 10 µM (inactive) | > 10 µM (inactive) | > 10 µM (inactive) | > 10 µM (inactive) | – | > 10 µM (inactive) | > 10 µM (inactive) | > 10 µM (inactive) | > 10 µM (inactive) | > 10 µM (inactive) | > 10 µM (inactive) | > 10 µM (inactive) | > 10 µM (inactive) | > 10 µM (inactive) | > 10 µM (inactive) | > 10 µM (inactive) | > 10 µM (inactive) | > 10 µM (inactive) | > 10 µM (inactive) | > 10 µM (inactive)
11 | O=C1CCc2ccc(O)c(c2)Oc2ccc(cc2)C(Sc2ccccc2)CCO1 (centres undefined) | 13.5 µM (inactive) | 19.7 µM (inactive) | 18.6 µM (inactive) | 10.9 µM (inactive) | – | 13.3 µM (inactive) | 12.9 µM (inactive) | 15 µM (inactive) | 16 µM (inactive) | 15.7 µM (inactive) | 14.1 µM (inactive) | 12.5 µM (inactive) | 13.1 µM (inactive) | 17.1 µM (inactive) | 17.7 µM (inactive) | 17.1 µM (inactive) | 14.4 µM (inactive) | 17.8 µM (inactive) | 14.1 µM (inactive) | 7.74 µM (inactive)
12 | CCCCCCCCOCC(CO)OCCCCCCCC (centres undefined) | 21.7 µM (inactive) | 23.7 µM (inactive) | 18.9 µM (inactive) | 19.9 µM (inactive) | > 10 µM (inactive) | 21.7 µM (inactive) | 21.6 µM (inactive) | – | 17.3 µM (inactive) | 15 µM (inactive) | 30.5 µM (inactive) | – | 18.7 µM (inactive) | 17.9 µM (inactive) | 19 µM (inactive) | – | – | – | – | –
13 | O=C(CSc1nc(-c2ccccc2)c(-c2ccccc2)[nH]1)NNC(=S)Nc1ccccc1 | 27.6 µM (inactive) | > 100 µM (inactive) | > 100 µM (inactive) | 59.8 µM (inactive) | > 100 µM (inactive) | 82.4 µM (inactive) | > 100 µM (inactive) | > 100 µM (inactive) | > 100 µM (inactive) | > 100 µM (inactive) | 81.7 µM (inactive) | 0.414 µM (active) | > 100 µM (inactive) | > 100 µM (inactive) | 22.8 µM (inactive) | – | – | – | – | –
14 | CC(C)CC(NC(=O)C(Cc1ccccc1)NC(=O)C(Cc1ccccc1)NC(=O)OC(C)(C)C)C(=O)OCc1ccccc1 (stereo not drawn) (Boc-Phe-Phe-Leu-OBn; configuration not given here) | > 100 µM (inactive) | > 100 µM (inactive) | > 100 µM (inactive) | > 100 µM (inactive) | – | > 100 µM (inactive) | > 100 µM (inactive) | > 100 µM (inactive) | > 100 µM (inactive) | > 100 µM (inactive) | > 100 µM (inactive) | > 100 µM (inactive) | > 100 µM (inactive) | > 100 µM (inactive) | > 100 µM (inactive) | > 100 µM (inactive) | > 100 µM (inactive) | > 100 µM (inactive) | > 100 µM (inactive) | > 100 µM (inactive)
15 | O=C(O)CCC(=O)C(=O)O [ALPHA-KETOGLUTARIC ACID] | > 100 µM (inactive) | > 100 µM (inactive) | > 100 µM (inactive) | > 100 µM (inactive) | – | > 100 µM (inactive) | > 100 µM (inactive) | > 100 µM (inactive) | > 100 µM (inactive) | > 100 µM (inactive) | > 100 µM (inactive) | > 100 µM (inactive) | > 100 µM (inactive) | > 100 µM (inactive) | > 100 µM (inactive) | > 100 µM (inactive) | > 100 µM (inactive) | > 100 µM (inactive) | > 100 µM (inactive) | > 100 µM (inactive)
16 | CC[C@]12CCCN3CCc4c(n(c5ccccc45)C(=O)C1)[C@@H]32 [VINBURNINE] | 4.56 µM (inactive) | 14.5 µM (inactive) | 7.5 µM (inactive) | 2.44 µM (inactive) | – | 5.85 µM (inactive) | 4.76 µM (inactive) | 4.54 µM (inactive) | 4.88 µM (inactive) | 11.6 µM (inactive) | > 100 µM (inactive) | 46.9 µM (inactive) | 13.7 µM (inactive) | 34.6 µM (inactive) | 2.65 µM (inactive) | 1.26 µM (inactive) | 24.7 µM (inactive) | 15.6 µM (inactive) | 3.25 µM (inactive) | 11.5 µM (inactive)
